According to patent US20110059909A1, “METHODS FOR TREATING INFLAMMATORY DISORDERS” (priority 2004, published 2011):
Values belong to the molecule of their own block, whether it stands above or below them.

Columns and labels:
mice = settings: cited from earlier work
[1] = tested on: primary cultured rat neocortical explants; settings: cited from earlier work
[2] = tested on: primary cultured rat neocortical explants; settings: cited from earlier work; remark: listed apart in the source
LacCer synthase (GalT-2) = biological target: T1, LacCer synthase (GalT-2) (Rattus norvegicus, UniProt O88419); experiment: Measurement of [14C]LacCer synthesis in primary astrocytes (HPTLC); type: cell-based; settings: TNFα 1 ng/ml
T1 construct: using cell lysates derived from cells stimulated with LPS/IFNγ; endogenous in cells; host or cells: rat primary astrocytes
T1 sequence (O88419 1-382): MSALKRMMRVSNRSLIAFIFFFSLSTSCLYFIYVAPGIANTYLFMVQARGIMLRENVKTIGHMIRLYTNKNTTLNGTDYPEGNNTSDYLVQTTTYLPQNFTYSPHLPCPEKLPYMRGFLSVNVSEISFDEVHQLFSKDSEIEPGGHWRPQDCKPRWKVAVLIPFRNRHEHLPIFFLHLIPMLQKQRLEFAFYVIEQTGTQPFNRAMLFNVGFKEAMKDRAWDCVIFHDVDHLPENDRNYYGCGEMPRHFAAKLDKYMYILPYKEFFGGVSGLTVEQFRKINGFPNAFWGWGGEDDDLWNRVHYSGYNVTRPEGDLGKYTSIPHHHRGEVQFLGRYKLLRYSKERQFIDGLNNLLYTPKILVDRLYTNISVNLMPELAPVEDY
Experimental: Cultured cells were incubated in growth medium containing [^14C]galactose (5 μCi/ml) for 24 h as described previously. The medium was removed, and the cell monolayer was washed with sterile PBS. After the stimulation with LPS/IFNγ (1 μg/ml; 10 U/ml) for various durations, cells were then harvested and washed with ice cold PBS and lysed by sonication. 200 μg of protein was used for extraction of lipids using Chloroform:Methanol:HCl (100:100:1). The organic phase was dried under nitrogen. Glycosphingolipids were resolved by high performance thin layer chromatography using chloroform/methanol/0.25% KCl (70:30:4, v/v/v) as the developing solvent. The gel area corresponding to LacCer was scraped, and radioactivity was measured employing “liquiscint” (NEN Life Science Products) as a scintillating fluid.

small GTPase Ras = experiment: Quantification of Ras activation (GST-Raf-1 RBD pull-down) in primary astrocytes; type: cell-based, rat; settings: pretreated 0.5 h, TNFα
Experimental: After stimulation, primary astrocytes in 6-well plates were washed with ice cold PBS and lysed in membrane lysis buffer (MLB; 0.5 ml of 25 mM HEPES, pH 7.5, 150 mM NaCl, 1% Igepal CA-630, 0.25% sodium deoxycholate, 10% glycerol, 10 mM MgCl2, 1 mM EDTA, 25 mM NaF, 1 mM of sodium orthovanadate, and EDTA free Complete™ protease inhibitor cocktail). After centrifugation (5,000×g) at 4° C. for 5 min, supernatant was used for Ras activation assay. One hundred μg of supernatant was used for binding with agarose conjugated Ras-binding domain (RBD) of Raf-1 which was expressed in BL21 (Invitrogen), Escherichia coli strain, transformed by pGEX-2T-GST-RBD in the presence of 0.1 mM of IPTG as described previously (Herrmann et al., 1995). The binding reaction was performed at 4° C. for 30 min in MLB. Following washing with MLB three times, Ras-RBD complex were denatured by adding of 2×SDS sample buffer. Ras protein was identified by western blot analysis with Ras antibodies from Upstate Biotechnology.

ERK1/2 = ERK1/2 activation (phospho-ERK1/2 immunoblot) in primary astrocytes; type: cell-based, rat; settings: pretreated 0.5 h, TNFα 20 min
Experimental: (§1) For iNOS protein, the cells were washed with cold Tris buffered saline (TBS; 20 mM Trizma base, and 137 mM NaCl, pH 7.5), lysed in 1×SDS sample loading buffer (62.5 mM Trizma base, 2% w/v SDS, 10% glycerol), following sonication and centrifugation at 15,000×g for 5 min, the supernatant was used for the iNOS western immunoblot assay. The protein concentration of samples was determined with the detergent compatible protein assay reagent (Bio-Rad Laboratories, CA) using bovine serum albumin (BSA) as the standard. Sample was boiled for 3 min with 0.1 volumes of 10% β-mercaptoethanol and 0.5% bromophenol blue mix. Fifty μg of total cellular protein was resolved by electrophoresis on 8 or 12% polyacrylamide gels, electro-transferred to polyvinylidene difluoride (PVDF) filter and blocked with Tween 20 containing Tris-buffered saline (TBST; 10 mM Trizma base-pH 7.4, 1% Tween 20, and 150 mM NaCl) with 5% skim milk. After incubation with antiserum against iNOS (BD PharMingen, CA), rat GalT-2 (Abjent Inc., CA), H-Ras (Upstate Biotechnology, CA), GFAP (Santa Cruz Biotech, CA), or phospho-specific ERK1/2 (Cell signaling Tech Inc., MA), or pIκ-B (Signal Transduction), in PVDF buffer for 2 h at room temperature, the filters were washed 3 times with TBST buffer and then incubated with horseradish peroxidase conjugated anti-rabbit or mouse IgG for 1 h. The membranes were detected by autoradiography using ECL-plus (Amersham Pharmacia Biotech) after washing with TBST buffer.

rat primary astrocytes = experiment: BrdU incorporation assay, proliferation of primary astrocytes; type: cell-based; settings: pretreated 0.5 h (AS: 48 h after transfection), TNFα 1 ng/ml 18 h, BrdU incorporation
Experimental: Primary astrocyte-enriched cultures were prepared from the whole cortex of one day old Sprague-Dawley rats as described earlier (Pahan et al., 1998b). Briefly, the cortex was rapidly dissected in ice-cold calcium/magnesium free Hanks Balanced Salt Solution (HBSS) (Gibco, Grand Island, N.Y.) at pH 7.4 as described previously (Won et al., 2001). The tissue was then minced, incubated in HBSS containing trypsin (2 mg/ml) for 20 min and washed twice in plating medium containing 10% FBS and 10 μg/ml gentamicin, and then disrupted by triturating through a Pasteur pipette following which cells were seeded in 75-cm^2 culture flasks (Falcon, Franklin, N.J.). After incubation at 37° C. in 5% CO2 for 1 day, the medium was completely changed to the culture medium (DMEM containing 5% FBS and 10 μg/ml gentamicin). The cultures received half exchanges with fresh medium twice a week. After 14-15 days the cells were shaken for at least 24 h on an orbital shaker to remove the microglia and then seeded on multi-well tissue culture dishes. The cells were incubated with serum-free DMEM for 24 h prior to the incubation with drugs.
Proliferation of primary astrocytes was assayed by using the Cell proliferation ELISA, BrdU colorimetric assay kit (Roche, Germany) according to manufacturer's protocol. Briefly, cells were seeded in 96 well plates in quadruplicate and following overnight serum starvation were stimulated with mitogenic stimulants. 2 h before termination of proliferation assay, BrdU (10 μM) was added to each well following which cells were fixed and levels of incorporated BrdU were assayed by using a conjugated anti-BrdU enzyme. Colorimetric analysis was done by measuring absorbance at 370 nm using a spectramax MAX 190 (Molecular devices) multi-well plate reading spectrophotometer.

GFAP = GFAP mRNA (real time PCR) and protein (immunoblot) in TNFα-stimulated primary astrocytes; type: cell-based, rat; settings: TNFα 1 ng/ml; mRNA 8 h, protein 18 h
Experimental: as §1

GalT-2 = GalT-2 activity assay on cell lysates; type: cell-based, rat; settings: LY pretreatment
Experimental: The activity of GalT-2 was measured using [^3H]UDP-galactose as the galactose donor and GlcCer as the acceptor as described previously (Yeh et al., 2001). Briefly, cells were harvested in PBS and cell pellets were suspended in Triton X-100 lysis buffer. Cell lysates were sonicated and following protein quantification, 100 μg of cell lysate was added to reaction mixture containing […] of cacodylate buffer (pH 6.8), 1 mM Mn/Mg, 0.2 mg/ml Triton X-100 (1:2 v/v), 30 nmol of GluCer and […] of UDP-[^3H]galactose in a total volume of 100 μl. The reaction was terminated by adding 10 μl of 0.25M EDTA, 10 μl of 0.5M KCl and 500 μl of Chloroform/Methanol (2:1 v/v) and the products were separated by centrifugation. The lower phase was collected and dried under nitrogen. Following resolution on HPTLC plates, the gel was cut out and radioactivity was measured in a scintillation counter. Assay without exogenous GluCer served as blank and their radioactivity counts were subtracted from all respective data points.

X-ALD patients = settings: cited from earlier work

SMILES: CCCCCCCCCC(=O)N[C@@H](CN1CCOCC1)[C@@H](O)c1ccccc1 [L-threo PDMP]
LD50 values, L-threo PDMP compared to D-threo PDMP (mice): higher | Neurite outgrowth [1]: stimulated | GSL biosynthesis [2]: stimulated

[14C]LacCer synthesis upon TNFα-stimulation (LacCer synthase (GalT-2)): inhibited | TNFα-induced Ras activation (small GTPase Ras): inhibited
SMILES: O=c1cc(N2CCOCC2)oc2c(-c3ccccc3)cccc12 [LY, 2-(4-Morpholinyl)-8-phenyl-4H-1-benzopyran-4-one]
TNFα-induced ERK1/2 phosphorylation (ERK1/2): inhibited | TNFα-induced astrocyte proliferation (rat primary astrocytes): significantly attenuated | TNFα-induced GFAP mRNA and protein expression (GFAP): inhibited | TNFα-induced GalT-2 activation (GalT-2): inhibition

SMILES: CCCCCCCC/C=C\CCCCCCCC(=O)OCC(COC(=O)CCCCCCC/C=C\CCCCCCCC)OC(=O)CCCCCCC/C=C\CCCCCCCC [trioleate]
Reduction of VLCFA (X-ALD patients): 50%
